Assay results taken from the supplement of paper PMC9663587.

Experiments:
[1] = compound: CN1CC[C@H](c2c(O)cc(O)c3c(=O)cc(-c4ccccc4Cl)oc23)[C@H](O)C1 [Flavopiridol]; experiment: increase in dead-cell fraction, 72 h; higher = more death;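 note: breast cancer cell lines in 384-well plates, stained with Hoechst plus LIVE/DEAD far red dye and imaged, cells above an LDR intensity threshold counted dead, Hoechst-negative corpses included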
[2] = compound: CCc1cnn2c(NCc3ccc[n+]([O-])c3)cc(N3CCCC[C@H]3CCO)nc12; experiment: as above
[3] = compound: CCN1CCN(Cc2ccc(Nc3ncc(F)c(-c4cc(F)c5nc(C)n(C(C)C)c5c4)n3)nc2)CC1; experiment: as above
[4] = compound: CC(=O)c1c(C)c2cnc(Nc3ccc(N4CCN(CCOCCOCCOCCNC(=O)COc5cccc6c5C(=O)N(C5CCC(=O)NC5=O)C6=O)CC4)cn3)nc2n(C2CCCC2)c1=O [BSJ-03-123]; experiment: as above
[5] = compound: CN(C)C/C=C/C(=O)Nc1ccc(C(=O)Nc2cccc(Nc3ncc(Cl)c(-c4c[nH]c5ccccc45)n3)c2)cc1 [THZ1]; experiment: as above
[6] = compound: CC(=O)c1c(C)c2cnc(Nc3ccc(N4CCNCC4)cn3)nc2n(C2CCCC2)c1=O; experiment: as above
[7] = compound: CN(C)C(=O)c1cc2cnc(Nc3ccc(N4CCNCC4)cn3)nc2n1C1CCCC1 [LEE011/Ribociclib]; experiment: as above
[8] = compound: CCOc1cc2ncc(C#N)c(Nc3ccc(OCc4ccccn4)c(Cl)c3)c2cc1NC(=O)/C=C/CN(C)C [Neratinib/HKI272]; experiment: as above
[9] = compound: C[C@@H]1COCCN1c1cc(C2([S@](C)(=N)=O)CC2)nc(-c2cc[nH]c3nccc2-3)n1 [AZD6738]
[10] = compound: O=C1NC(=O)[C@@H](c2cn3c4c(cccc24)CCC3)[C@@H]1c1c[nH]c2ccccc12 [Tivantinib/ARQ197]
[11] = compound: CCC1=CN=CN=C1N2CCN(CC2)CC3=NC4=C(N3)C=C(C=C4)C(F)(F)F
[12] = compound: CNC(=O)c1cccc(-c2ccc3c(N4CCOC[C@@H]4C)nc(N4CCOC[C@@H]4C)nc3n2)c1 [AZD2014]
[13] = compound: O=C(CCCCCCC(=O)Nc1ccccc1)NO [Vorinostat]
[14] = compound: CC(C)NC[C@@H](C(=O)N1CCN(c2ncnc3c2[C@H](C)C[C@H]3O)CC1)c1ccc(Cl)cc1 [Ipatasertib/GDC0068]
[15] = compound: CCN1CCN(Cc2ccc(Nc3ncc(F)c(-c4cc(F)c5nc(C)n(C(C)C)c5c4)n3)nc2)CC1
[16] = compound: CC(=O)Nc1cccc(-n2c(=O)n(C3CC3)c(=O)c3c(Nc4ccc(I)cc4F)n(C)c(=O)c(C)c32)c1
[17] = compound: COc1ccc2c(c1)[C@]1(C[C@H]1c1ccc3c(/C=C/c4ccc(CN5C[C@@H](C)O[C@@H](C)C5)cc4)n[nH]c3c1)C(=O)N2
[18] = compound: NC(=O)Nc1cc(-c2cccc(F)c2)sc1C(=O)N[C@H]1CCCNC1 [AZD7762]
[19] = compound: CN(C)C/C=C/C(=O)Nc1ccc(O[C@@H]2CCC[C@@H](Nc3ncc(Cl)c(-c4c[nH]c5ccccc45)n3)C2)cc1 [BSJ-01-175]
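Throughout, for GR50, 72 h: breast cancer and non-malignant breast epithelial cell lines, Deep Dye Drop or Dye Drop imaging, nine half-log doses, GR normalized to time-zero plates and DMSO-only controls.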

HCC1806
increase in dead-cell fraction ([1]; 0.0001 µM): -0.0011 | increase in dead-cell fraction ([1]; 0.0003162 µM): -0.0029 | increase in dead-cell fraction ([1]; 0.001 µM): 0.003 | increase in dead-cell fraction ([1]; 0.003162 µM): -0.001 | increase in dead-cell fraction ([1]; 0.01 µM): 0.0029 | increase in dead-cell fraction ([1]; 0.03162 µM): 0.005 | increase in dead-cell fraction ([1]; 0.1 µM): 0.019 | increase in dead-cell fraction ([1]; 0.3162 µM): 0.0572 | increase in dead-cell fraction ([1]; 1 µM): 0.71 | increase in dead-cell fraction ([2]; 0.0001 µM): -0.0016 | increase in dead-cell fraction ([2]; 0.0003162 µM): -0.0077 | increase in dead-cell fraction ([2]; 0.001 µM): -0.0005 | increase in dead-cell fraction ([2]; 0.003162 µM): 0.0006 | increase in dead-cell fraction ([2]; 0.01 µM): 0.0355 | increase in dead-cell fraction ([2]; 0.03162 µM): 0.585 | increase in dead-cell fraction ([2]; 0.1 µM): 0.742 | increase in dead-cell fraction ([2]; 0.3162 µM): 0.728 | increase in dead-cell fraction ([2]; 1 µM): 0.713 | increase in dead-cell fraction ([3]; 0.001 µM): 0.0032 | increase in dead-cell fraction ([3]; 0.003162 µM): -0.005 | increase in dead-cell fraction ([3]; 0.01 µM): 0.0052 | increase in dead-cell fraction ([3]; 0.03162 µM): 0.0175 | increase in dead-cell fraction ([3]; 0.1 µM): 0.0076 | increase in dead-cell fraction ([3]; 0.3162 µM): 0.0172 | increase in dead-cell fraction ([3]; 1 µM): 0.043 | increase in dead-cell fraction ([3]; 3.162 µM): 0.154 | increase in dead-cell fraction ([3]; 10 µM): 0.698 | increase in dead-cell fraction ([4]; 0.001 µM): 0.0017 | increase in dead-cell fraction ([4]; 0.003162 µM): 0.0008 | increase in dead-cell fraction ([4]; 0.01 µM): -0.0016 | increase in dead-cell fraction ([4]; 0.03162 µM): -0.0015 | increase in dead-cell fraction ([4]; 0.1 µM): 0.0039 | increase in dead-cell fraction ([4]; 0.3162 µM): 0.0061 | increase in dead-cell fraction ([4]; 1 µM): 0.0075 | increase in dead-cell fraction ([4]; 3.162 µM): 0.0235 | increase in dead-cell fraction ([4]; 10 µM): 0.152 | increase in dead-cell fraction ([5]; 0.0001 µM): -0.0025 | increase in dead-cell fraction ([5]; 0.0003162 µM): -0.0038 | increase in dead-cell fraction ([5]; 0.001 µM): -0.0025 | increase in dead-cell fraction ([5]; 0.003162 µM): -0.0009 | increase in dead-cell fraction ([5]; 0.01 µM): -0.0024 | increase in dead-cell fraction ([5]; 0.03162 µM): 0.0112 | increase in dead-cell fraction ([5]; 0.1 µM): 0.0478 | increase in dead-cell fraction ([5]; 0.3162 µM): 0.271 | increase in dead-cell fraction ([5]; 1 µM): 0.766 | increase in dead-cell fraction ([6]; 0.0003162 µM): 0.0005 | increase in dead-cell fraction ([6]; 0.001 µM): 0.0026 | increase in dead-cell fraction ([6]; 0.003162 µM): 0.0009 | increase in dead-cell fraction ([6]; 0.01 µM): -0.0004 | increase in dead-cell fraction ([6]; 0.03162 µM): 0.0094 | increase in dead-cell fraction ([6]; 0.1 µM): 0.0238 | increase in dead-cell fraction ([6]; 0.3162 µM): 0.0157 | increase in dead-cell fraction ([6]; 1 µM): 0.0237 | increase in dead-cell fraction ([6]; 3.162 µM): 0.0046 | increase in dead-cell fraction ([7]; 0.001 µM): 0.0002 | increase in dead-cell fraction ([7]; 0.003162 µM): -0.0001 | increase in dead-cell fraction ([7]; 0.01 µM): 0.0014 | increase in dead-cell fraction ([7]; 0.03162 µM): -0.0047 | increase in dead-cell fraction ([7]; 0.1 µM): 0.0015 | increase in dead-cell fraction ([7]; 0.3162 µM): 0.0032 | increase in dead-cell fraction ([7]; 1 µM): 0.0064 | increase in dead-cell fraction ([7]; 3.162 µM): 0.0046 | increase in dead-cell fraction ([7]; 10 µM): 0.0171 | increase in dead-cell fraction ([8]; 0.0003162 µM): 0.0048 | increase in dead-cell fraction ([8]; 0.001 µM): -0.0002 | increase in dead-cell fraction ([8]; 0.003162 µM): 0.0056 | increase in dead-cell fraction ([8]; 0.01 µM): 0.015 | increase in dead-cell fraction ([8]; 0.03162 µM): 0.0267 | increase in dead-cell fraction ([8]; 0.1 µM): 0.0441 | increase in dead-cell fraction ([8]; 0.3162 µM): 0.065 | increase in dead-cell fraction ([8]; 1 µM): 0.0775 | increase in dead-cell fraction ([8]; 3.162 µM): 0.435 | GR50, 72 h [9]: 1.1 µM | GR50, 72 h [10]: 0.272 µM | GR50, 72 h [11]: > 10 µM | GR50, 72 h [12]: 1.82 µM | GR50, 72 h [13]: 1.13 µM | GR50, 72 h [14]: > 10 µM | GR50, 72 h [15]: 0.554 µM | GR50, 72 h [16]: > 1 µM | GR50, 72 h [17]: 0.00322 µM | GR50, 72 h [18]: 0.0166 µM | GR50, 72 h [19]: 0.092 µM
